Experimental data published in PMC5363571 (Oncotarget, 2016).
Structures can show the parent of a compound that is named as a salt.

What follows are compounds tested against USP7 (Homo sapiens, UniProt Q93009) (assay: biochemical). Settings: read-out: % Inhibition at 50 μM.
Chain of USP7 (Q93009 whole entry): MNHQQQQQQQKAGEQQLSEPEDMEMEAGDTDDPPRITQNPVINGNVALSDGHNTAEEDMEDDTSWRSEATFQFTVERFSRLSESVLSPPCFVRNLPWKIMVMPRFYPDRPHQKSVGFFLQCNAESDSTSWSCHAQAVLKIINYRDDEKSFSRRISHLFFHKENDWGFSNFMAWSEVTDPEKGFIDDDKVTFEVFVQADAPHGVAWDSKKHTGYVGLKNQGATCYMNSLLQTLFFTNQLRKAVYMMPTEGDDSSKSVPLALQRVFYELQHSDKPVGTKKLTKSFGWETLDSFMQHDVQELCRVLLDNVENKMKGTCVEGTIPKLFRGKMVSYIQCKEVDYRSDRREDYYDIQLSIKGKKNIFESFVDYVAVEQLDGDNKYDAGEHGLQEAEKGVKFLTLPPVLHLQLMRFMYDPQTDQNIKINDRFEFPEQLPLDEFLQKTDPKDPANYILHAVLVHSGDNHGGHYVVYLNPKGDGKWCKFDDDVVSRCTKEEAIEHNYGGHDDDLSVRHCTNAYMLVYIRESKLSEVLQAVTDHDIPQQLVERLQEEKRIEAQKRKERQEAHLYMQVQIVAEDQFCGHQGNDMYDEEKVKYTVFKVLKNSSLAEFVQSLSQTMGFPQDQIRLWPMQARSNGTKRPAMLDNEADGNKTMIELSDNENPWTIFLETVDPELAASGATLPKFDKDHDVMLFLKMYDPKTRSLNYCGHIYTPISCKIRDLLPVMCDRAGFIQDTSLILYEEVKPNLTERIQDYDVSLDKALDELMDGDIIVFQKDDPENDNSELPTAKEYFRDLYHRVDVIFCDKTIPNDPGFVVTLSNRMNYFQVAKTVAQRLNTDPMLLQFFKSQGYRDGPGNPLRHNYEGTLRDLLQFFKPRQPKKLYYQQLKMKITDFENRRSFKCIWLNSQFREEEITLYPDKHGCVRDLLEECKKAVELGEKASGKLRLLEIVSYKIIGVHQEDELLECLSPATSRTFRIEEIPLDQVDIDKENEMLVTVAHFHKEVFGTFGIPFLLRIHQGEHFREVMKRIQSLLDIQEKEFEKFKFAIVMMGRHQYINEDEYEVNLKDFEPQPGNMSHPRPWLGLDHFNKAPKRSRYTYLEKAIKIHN
Design: Ub-AMC hydrolysis by recombinant USP7 (20 nM), 30 min pre-incubation, fluorescence read-out
C=C1C[C@@H]2[C@H](CC[C@]3(C)C(=O)CC[C@@H]23)[C@@]2(C)C=CC(=O)C=C12 [Exemestane] gave an inhibition at 50 µM of under 5%.
With CC(C)(CO)[C@@H](O)C(=O)NCCC(=O)O [Pantothenic acid] the inhibition at 50 µM was under 5%.
CN(C)c1ccc(O)c2c1C[C@H]1C[C@H]3[C@H](N(C)C)C(O)=C(C(N)=O)C(=O)[C@@]3(O)C(O)=C1C2=O [Minocycline HCl] was tested, and the inhibition at 50 µM was under 5%.
In the case of c1ccc([C@H]2CN3CCSC3=N2)cc1 [Levamisole HCl], the inhibition at 50 µM is reported as under 5%.
With C[C@H]1c2cccc(O)c2C(=O)C2=C(O)[C@]3(O)C(=O)C(C(N)=O)=C(O)[C@@H](N(C)C)[C@@H]3[C@@H](O)[C@@H]21 [Doxycycline HCl] the inhibition at 50 µM was under 5%.
Work on Cc1ccc(C(=O)c2cc(O)c(O)c([N+](=O)[O-])c2)cc1 [Tolcapone] yielded an inhibition at 50 µM of 28.6%.
For COCCOC(=O)C1=C(C)NC(C)=C(C(=O)OC/C=C/c2ccccc2)C1c1cccc([N+](=O)[O-])c1 (stereo not shown) [Cilnidipine], the inhibition at 50 µM was under 5%.
CC(COc1ccccc1)N(CCCl)Cc1ccccc1 (stereo not shown) [Phenoxybenzamine HCl] showed an inhibition at 50 µM of under 5%.
In the case of CC(=O)O[C@]1(C(C)=O)CC[C@H]2[C@@H]3C=C(C)C4=CC(=O)CC[C@]4(C)[C@H]3CC[C@@]21C [Megestrol acetate], the inhibition at 50 µM is reported as under 5%.
Work on O=C(CCNNC(=O)c1ccncc1)NCc1ccccc1 [Nialamide] yielded an inhibition at 50 µM of under 5%.
In the case of CN(C)CC/C=C1/c2ccccc2COc2ccc(CC(=O)O)cc21 [Olopatadine], the inhibition at 50 µM is reported as under 5%.
For C[C@](N)(Cc1ccc(O)c(O)c1)C(=O)O [Methyldopa], the inhibition at 50 µM was under 5%.
CCN[C@H]1C[C@H](C)S(=O)(=O)c2sc(S(N)(=O)=O)cc21 [Dorzolamide] gave an inhibition at 50 µM of under 5%.
With C[C@]12C[C@H](O)[C@H]3[C@@H](CCC4=CC(=O)CC[C@@]43C)[C@@H]1CC[C@@H]2C(=O)CO [Corticosterone] the inhibition at 50 µM was under 5%.
With Nc1ccc(S(=O)(=O)Nc2ncccn2)cc1 [Sulfadiazine] the inhibition at 50 µM was under 5%.
Work on CC(=O)O[C@]1(C(C)=O)CC[C@H]2[C@@H]3C=C(Cl)C4=CC(=O)[C@@H]5C[C@@H]5[C@]4(C)[C@H]3CC[C@@]21C [Cyproterone acetate] yielded an inhibition at 50 µM of 28.6%.
Work on Nc1c(Br)cc(Br)cc1CN[C@H]1CC[C@H](O)CC1 [Ambroxol] yielded an inhibition at 50 µM of under 5%.
For CO[C@@H]1[C@H](OC(=O)/C=C/C=C/C=C/C=C/C(=O)O)CC[C@]2(CO2)[C@H]1[C@@]1(C)O[C@@H]1CC=C(C)C [Fumagillin], the inhibition at 50 µM was under 5%.
Work on CN(C(=O)CCCOc1ccc2[nH]c(=O)ccc2c1)C1CCCCC1 [Cilostamide] yielded an inhibition at 50 µM of under 5%.
For CC1=C(/C=C/C(C)=C/C=C/C(C)=C/C=C/C=C(C)/C=C/C=C(C)/C=C/C2=C(C)C(=O)CCC2(C)C)C(C)(C)CCC1=O [Canthaxanthin], the inhibition at 50 µM was under 5%.
Compound c1cnc(N2CCN(Cc3ccc4c(c3)OCO4)CC2)nc1 [Piribedil HCl] has an inhibition at 50 µM of under 5%.
With COC(=O)C1=C(C)NC(C)=C(C(=O)OCCCN2CCC(c3ccccc3)(c3ccccc3)CC2)[C@H]1c1cccc([N+](=O)[O-])c1 [Niguldipine HCl] the inhibition at 50 µM was under 5%.
CC(C)Nc1cccnc1N1CCN(C(=O)c2cc3cc(NS(C)(=O)=O)ccc3[nH]2)CC1 [Delavirdine mesylate] gave an inhibition at 50 µM of under 5%.
In the case of C[C@H]1[C@H](C)CC[C@]2(C(=O)O)CC[C@]3(C)C(=CC[C@@H]4[C@@]5(C)CC[C@H](O)C(C)(C)[C@@H]5CC[C@]43C)[C@H]12 [Uosolic acid], the inhibition at 50 µM is reported as 75.2%.
Compound CCCCC[C@H](O)/C=C/[C@H]1[C@H](O)CC(=O)[C@@H]1CCCCCCC(=O)O [Alprostadil] has an inhibition at 50 µM of under 5%.
In the case of CCN(CC)CCCC(C)Nc1c2ccc(Cl)cc2nc2ccc(OC)cc12 (stereo not shown) [Quinacrine 2HCl dihydrate], the inhibition at 50 µM is reported as under 5%.
With C#CCN(C)C(C)Cc1ccccc1 (stereo not shown) [Deprenyl] the inhibition at 50 µM was under 5%.
Cc1oncc1C(=O)Nc1ccc(C(F)(F)F)cc1 [Leflunomide] gave an inhibition at 50 µM of under 5%.
Compound COc1ccc(C[C@H](N)C(=O)N[C@H]2[C@@H](O)[C@H](n3cnc4c(N(C)C)ncnc43)O[C@@H]2CO)cc1 [Puromycin 2HCl] has an inhibition at 50 µM of under 5%.
CN1[C@@H]2CCC[C@H]1C[C@@H](NC(=O)c1nn(C)c3ccccc13)C2 [Granisetron] gave an inhibition at 50 µM of under 5%.
Compound O=c1[nH]c2ccccc2n1C1CCN(CCCC(c2ccc(F)cc2)c2ccc(F)cc2)CC1 [Pimozide] has an inhibition at 50 µM of under 5%.
With Oc1ccc2c3c1O[C@H]1c4[nH]c5ccccc5c4C[C@@]4(O)[C@@H](C2)N(CC2CC2)CC[C@]314 [Naltrindole HCl] the inhibition at 50 µM was under 5%.
Nc1cc(-c2ccncc2)c[nH]c1=O [Amrinone] gave an inhibition at 50 µM of under 5%.
With CN[C@@H]1[C@H](O)[C@H](NC)[C@H]2O[C@@]3(O)C(=O)C[C@@H](C)O[C@H]3O[C@@H]2[C@H]1O [Spectinomycin] the inhibition at 50 µM was under 5%.
Compound Clc1ccc(COC(Cn2ccnc2)c2ccc(Cl)cc2Cl)c(Cl)c1 (stereo not shown) [Miconazole] has an inhibition at 50 µM of under 5%.
For CC(CCc1ccc(O)cc1)NCCc1ccc(O)c(O)c1 (stereo not shown) [Dobutamine HCl], the inhibition at 50 µM was under 5%.
CO[C@H]1C[C@H](O[C@H]2[C@H](C)[C@@H](O[C@@H]3O[C@H](C)C[C@H](N(C)C)[C@H]3OC(C)=O)[C@@H](C)C[C@@]3(CO3)C(=O)[C@H](C)[C@@H](OC(C)=O)[C@@H](C)[C@@H](C)OC(=O)[C@@H]2C)O[C@@H](C)[C@@H]1OC(C)=O [Troleandomycin] showed an inhibition at 50 µM of under 5%.
Compound CCC(C)n1ncn(-c2ccc(N3CCN(c4ccc(OC[C@H]5CO[C@](Cn6cncn6)(c6ccc(Cl)cc6Cl)O5)cc4)CC3)cc2)c1=O (mixture of isomers) [Itraconazole] has an inhibition at 50 µM of under 5%.
O=c1[nH]cnc2c1ncn2[C@H]1CC[C@@H](CO)O1 [Didanosine] showed an inhibition at 50 µM of under 5%.
Work on CN(C)CCc1c[nH]c2ccc(C[C@H]3COC(=O)N3)cc12 [zolmitriptan] yielded an inhibition at 50 µM of under 5%.
CCCNCC(O)COc1ccccc1C(=O)CCc1ccccc1 (stereo not shown) [Propafenone] was tested, and the inhibition at 50 µM was 78.2%.
NC[C@H](O)c1ccc(O)c(O)c1 [Norepinephrine-(+)-tartrate l (-)] gave an inhibition at 50 µM of under 5%.
CN(CCOc1ccc(CC2SC(=O)NC2=O)cc1)c1ccccn1 (stereo not shown) [Rosiglitazone maleate] showed an inhibition at 50 µM of under 5%.
CCOC(=O)C1=C[C@]2(CC)CCCN3CCc4c(n1c1ccccc41)[C@@H]32 [Vinpocetine] was tested, and the inhibition at 50 µM was 38.5%.
Cc1cnc(C(=O)NCCc2ccc(S(=O)(=O)NC(=O)NC3CCCCC3)cc2)cn1 [Glipizide] gave an inhibition at 50 µM of under 5%.
In the case of C[C@@H]1CN(c2c(F)c(N)c3c(=O)c(C(=O)O)cn(C4CC4)c3c2F)C[C@H](C)N1 [Sparfloxacin], the inhibition at 50 µM is reported as under 5%.
In the case of O=C(O)c1ccccc1Nc1cccc(C(F)(F)F)c1 [Flufenamic acid], the inhibition at 50 µM is reported as under 5%.
O=C1c2c(O)ccc(O)c2C(=O)c2c(NCCNCCO)ccc(NCCNCCO)c21 [Mitoxantrone 2HCl] gave an inhibition at 50 µM of under 5%.
In the case of Cc1cn([C@H]2C[C@H](N=[N+]=[N-])[C@@H](CO)O2)c(=O)[nH]c1=O [3'-azido-3'-deoxythymidine], the inhibition at 50 µM is reported as under 5%.
CC#C[C@]1(O)CC[C@H]2[C@@H]3CCC4=CC(=O)CCC4=C3[C@@H](c3ccc(N(C)C)cc3)C[C@@]21C [Mifepristone] was tested, and the inhibition at 50 µM was under 5%.
COc1ccccc1Oc1c(NS(=O)(=O)c2ccc(C(C)(C)C)cc2)nc(-c2ncccn2)nc1OCCO [Bosentan] gave an inhibition at 50 µM of under 5%.
Work on CN(C)C(=O)Oc1cccc([N+](C)(C)C)c1 [Neostigmine Br] yielded an inhibition at 50 µM of under 5%.
CCC[C@@H]1C[C@@H](C(=O)N[C@@H]([C@H]2O[C@H](SC)[C@H](O)[C@@H](O)[C@H]2O)[C@H](C)Cl)N(C)C1 [Clindamycin HCl] was tested, and the inhibition at 50 µM was under 5%.
CC(C)CN(C[C@@H](O)[C@H](Cc1ccccc1)NC(=O)O[C@H]1CCOC1)S(=O)(=O)c1ccc(N)cc1 [Amprenavir] showed an inhibition at 50 µM of under 5%.
With CCN1CCCC1CNC(=O)c1cc(S(=O)(=O)CC)c(N)cc1OC (stereo not shown) [Amisulpride] the inhibition at 50 µM was under 5%.
For CCN(CC)C(=S)SSC(=S)N(CC)CC [Disulfiram], the inhibition at 50 µM was under 5%.
For CS(=O)(=O)c1ccc([C@H](O)[C@@H](COC(=O)CN)NC(=O)C(Cl)Cl)cc1 [Thiamphenicol glycinate], the inhibition at 50 µM was under 5%.
For O=C1CC[C@@]2(O)[C@H]3Cc4ccc(O)c5c4[C@@]2(CCN3CC2CC2)[C@H]1O5 [Naltrexone HCl], the inhibition at 50 µM was under 5%.
With NC12CC3CC(CC(C3)C1)C2 [Amantadine HCl] the inhibition at 50 µM was under 5%.
In the case of CC(C)[C@H]1CC[C@H](C(=O)N[C@H](Cc2ccccc2)C(=O)O)CC1 [nateglinide], the inhibition at 50 µM is reported as under 5%.
NS(=O)(=O)Cc1noc2ccccc12 [Zonisamide] was tested, and the inhibition at 50 µM was under 5%.
With O=C(O)CCCc1ccccc1 [Sodium phenylbutyrate] the inhibition at 50 µM was under 5%.
CC(C)NCC(O)c1ccc(N)c(C#N)c1 (stereo not shown) [Cimaterol] gave an inhibition at 50 µM of under 5%.
In the case of COC(=O)[C@]1(C)CC[C@]2(C)CC[C@]3(C)C4=CC=C5C(=CC(=O)C(O)=C5C)[C@]4(C)CC[C@@]3(C)[C@@H]2C1 [Pristimerin], the inhibition at 50 µM is reported as 39.1%.
For COc1ncnc(NS(=O)(=O)c2ccc(N)cc2)c1OC [Sulfadoxine], the inhibition at 50 µM was under 5%.
Work on CNC1(C)C2CCC(C2)C1(C)C (stereo not shown) [Mecamylamine HCl] yielded an inhibition at 50 µM of under 5%.
COc1c(N2C[C@@H]3CCCN[C@@H]3C2)c(F)cc2c(=O)c(C(=O)O)cn(C3CC3)c12 [Moxifloxacin HCl] was tested, and the inhibition at 50 µM was under 5%.
Work on O=C1NCN(c2ccccc2)C12CCN(CCCC(c1ccc(F)cc1)c1ccc(F)cc1)CC2 [Fluspirilene] yielded an inhibition at 50 µM of under 5%.
CCOC(=O)c1cnc2c(cnn2CC)c1NN=C(C)C [Etazolate] showed an inhibition at 50 µM of under 5%.
For CCCCCCCCCCCCCCCC(=O)O[C@@H]1[C@@H](O)[C@@H](O)[C@@H]([C@H](NC(=O)[C@@H]2C[C@@H](CCC)CN2C)[C@H](C)Cl)O[C@@H]1SC [Clindamycin palmitate], the inhibition at 50 µM was under 5%.
CCc1nn(CCCN2CCN(c3cccc(Cl)c3)CC2)c(=O)n1CCOc1ccccc1 [Nefazodone] showed an inhibition at 50 µM of under 5%.
Work on C[C@H]1[C@H](C)CC[C@]2(C(=O)O)CC[C@]3(C)C(=CC[C@@H]4[C@@]5(C)C[C@@H](O)[C@H](O)[C@@](C)(CO)[C@@H]5CC[C@]43C)[C@H]12 [Asiatic acid] yielded an inhibition at 50 µM of under 5%.
Compound C#C[C@]1(O)CC[C@H]2[C@@H]3CCC4=Cc5oncc5C[C@]4(C)[C@H]3CC[C@@]21C [Danazol] has an inhibition at 50 µM of under 5%.
